From patent publication US20210386729A1, “METHODS FOR TREATING LIVER DISORDERS USING FXR AGONISTS” (NOVARTIS AG, priority 2016, published 2021)
“Also recorded” adds a separate entry of the source. Where two headings read alike, the source gives them in different places.

How the values were obtained:
[1] = test system: rat alpha-naphthyl-isothiocyanate (ANIT) model; test: Chronic treatment rat ANIT model, serum markers of cholestasis and liver damage; type: in vivo; details: 14 days oral dosing
Protocol: This model was utilized because it recapitulates many features of cholestasis observed in human PBC. In rats, ANIT-treatment leads to hepatic inflammatory cell infiltrate, bile duct hyperplasia, necrosis of bile duct epithelium, expansion of the hepatic portal region, hepatic fibrosis, hepatocellular necrosis and elevated levels of circulating bile acids, bilirubin, ALT, AST and GGT. These features are similar to subjects with advanced PBC.
Rats were treated with alpha-naphthyl-isothiocyanate (ANIT) (0.1% w/w) in food for 3 days prior to treatment with the compound at the indicated doses or with vehicle control (“Veh”). A non-cholestatic control group was fed standard chow diet without ANIT, and serve as the non-cholestatic control animals (“Control”). After 14 days of oral dosing, the indicated analyte was measured in serum. LLQ, lower limit of quantitation. Mean±SEM; n=5.

FGF15 = test: Serum FGF15 (MSD assay) in chronic rat ANIT-induced cholestasis model; type: in vivo; details: chronic treatment rat ANIT model
Protocol: Serum FGF15 levels were quantified using an FGF15 Meso Scale Discovery (MSD) assay. Mouse FGF15 antibody from R&D Systems (AF6755) was used both as capture and detection antibody in the assay. MSD SULFO-TAG NHS-Ester was used to label the FGF15 antibody. MSD standard 96-well plates were coated with the FGF15 capture antibody and the plates were blocked with MSD Blocker A (R93AA-2). After washing the plate with PBS+0.05% Tween 20, MSD diluent 4 was dispensed into each well and incubated for 30 min. 25 μl of calibrator dilutions or samples (serum or EDTA plasma) were dispensed into each well and incubated with shaking at RT. After washing, detection antibody was added and incubated with shaking for 1 h at RT. After washing and the addition of MSD Read buffer (R92TC-2), the plate was read on an MSD SECTOR Imager 6000. Plots of the standard curve and unknown samples were calculated using MSD data analysis software.
Activation of FXR in the ileum induces the expression of fibroblast growth factor 15 (FGF15 in rodent; FGF19 in human), a hormone that is secreted in the portal blood and signals to the liver to repress Cyp7a1 expression synergistically with SHP. The direct FXR-dependent induction of FGF15/19 along with FGF15/19's anti-cholestatic properties makes it a convenient serum biomarker for detecting target engagement of FXR agonists.

[2] = Pharmacokinetics in the chronic 2 week rat ANIT-induced cholestasis model; type: in vivo; details: male, Wistar, po, day 13, serum; for AUC(0-t): read-out: AUC 0-24 hr
Protocol: Male Wistar rats were treated with ANIT (0.1% ANIT in chow diet) for 2 weeks. […] The serum samples were collected on day 14 for analysis of biomarkers of hepatobiliary injury (including ALT, AST, bilirubin and bile acids). […] The mean biomarker data were compared to the PK data (average concentration at each dose) for the modeling. The IC80 was determined using the Inhibitory effect Imax model (effect C=0 at Imax, C=infinity at E0) built in Phoenix WinNonlin 6.3 software. […] Therefore, we chose to use a mean of the IC80 for the four biomarkers (total bilirubin, total bile acids, ALT and AST) as the IC80 for efficacy in this model.
ND=not determined. Data are presented as mean (n=3/group).

[3] = Safety and tolerability in healthy subjects; type: in vivo, human
[4] = Human efficacy dose calculation from rat efficacious exposure
Protocol: The human efficacy dose was calculated based on the efficacious exposure in the rat ANIT-induced disease model. Since the in vitro potency and protein binding between human and rat were similar, the EC80 exposure in human was assumed to be the same as that in rat (3.05 ng*h/mL).

FGF19 = details: healthy subjects, single and repeated dosing
[5] = clinical study in healthy subjects

Structure (SMILES): O=C(O)c1cc(F)c2nc(N3C4CC[C@H]3CC(OCc3c(-c5ccccc5OC(F)(F)F)noc3C3CC3)C4)sc2c1 (some centres unmarked) [Compound A]
- serum bile acid concentrations [1]: Marked reductions
- serum bilirubin concentrations [1]: Marked reductions
- hepatobiliary injury indicators (AST, ALT, bilirubin, bile acids) in serum ([1]; 0.01 to 3 mg/kg): improved many of these indicators starting at doses as low as 0.01 mg/kg
- serum FGF15 levels (FGF15): stimulated serum FGF15 expression; also recorded: Significant dose-dependent induction
- Cmax ([2]; 0.01 mg/kg): 0.39 ng/mL
- AUC(0-t) ([2]; 0.01 mg/kg): 3.49 ng·h/mL
- Cmax ([2]; 0.05 mg/kg): 2.28 ng/mL
- Cmax ([2]; 0.25 mg/kg): 15.6 ng/mL
- AUC(0-t) ([2]; 0.25 mg/kg): 158 ng·h/mL
- Cmax ([2]; 1.0 mg/kg): 52 ng/mL
- AUC(0-t) ([2]; 1.0 mg/kg): 582 ng·h/mL
- elevation of transaminases (ALT and AST), number of subjects ([3]; 100 μg repeated daily): 3 subjects
- ALP or bilirubin ([3]; 100 μg repeated daily, any subject): no elevation
- time for elevated ALT to resolve to within normal levels ([3]; 100 μg, without intervention): ≤ 14 days
- adverse events related to itch [3, 5]: no adverse events related to itch
- physical exam, vital signs or ECGs [3, 5]: No significant findings
- tolerability ([3]; repeated daily administration, doses up to and including 60 μg): well tolerated
- Cmax at estimated human efficacious dose ([4]; at dose of ~6 μg): ~0.2 ng/mL
- EC80 exposure ([4]; rat value, human assumed to be the same): 3.05 ng·h/mL
- BSEP gene expression levels (FXR target genes; rat liver): significant, dose-dependent increases
- SHP gene expression levels (FXR target genes; rat liver): significant, dose-dependent increases
- estimated effective dose (mean ED and median ED) (FXR target genes; rats treated two weeks, FXR target gene induction/repression in liver and ileum, day 14): approximately 0.01 mg/kg
- FGF19 response to dose (FGF19): Dose-dependent increases; also recorded: continues to rise with increasing Compound A doses beyond 100 μg
